Reference: patent US20260364175A1, “COMPOSITIONS FOR DRUG ADMINISTRATION” (Aegis Therapeutics, LLC, priority 2018, published 2026)
Like-named read-outs stand apart in the source and are kept apart here.

How the values were obtained:
blood glucose = assay: Ocular administration of insulin plus absorption enhancer, blood glucose in anesthetized rats; assay type: in vivo, rat (male Sprague-Dawley); details: for Blood Glucose: insulin eye drops + 0.50%
[1] = tested on: Escherichia coli (ATCC No. 8739); assay: Antibacterial activity, log reduction of cfu; assay type: cell-based; details: Escherichia coli
Source text: (§1) The viable microorganisms used in the invention were not more than five passages removed from the original ATCC culture. As described herein, one passage is defined as the transfer of organisms from an established culture to fresh medium and all transfers are counted.
(§2) Cultures received from the ATCC are resuscitated according to the directions provided by the ATTC. Cells grown in broth were pelleted by centrifugation, resuspended in 1/20th the volume of fresh maintenance broth, and combined with an equal volume of 20% (v/v in water) sterile glycerol. Cells grown on agar were scraped from the surface into the maintenance broth also containing 10% glycerol broth. Small aliquots of the suspension were dispensed into sterile vials and the vials were stored in liquid nitrogen or in a mechanical freezer at a temperature no higher than about −50 °C. When a fresh seed-stock vial was required, it was removed and used to inoculate a series of working stock cultures. These working stock cultures were then used periodically (each day in the case of bacteria and yeast) to start the inoculum culture.
(§3) The culture conditions for the inoculum culture is substantially as described in Table IV. For example, suitable media can include but is not limited to, Soybean-Casein Digest or Sabouraud Dextrose Agar Medium. […]
(§4) The suspension should be refrigerated if it is not used within 2 hours. To confirm the initial cfu per mL estimate, the number of cfu per mL in each suspension was determined using the conditions of media and microbial recovery incubation times listed in Table IV (e.g., from about 3 to about 7 days). This value serves to calibrate the size of inoculum used in the test. The bacterial and yeast suspensions were used within 24 hours of harvest; whereas the fungal preparation can be stored under refrigeration for up to 7 days.
(§5) To determine which alkylglycoside formulations have antibacterial activity, the formulations were prepared in phosphate buffered saline (PBS) at pH 7. As a source of nutrition, either 1.5 mg/mL bovine serum albumin (BSA; see Tables V and VI) or 1 mg/mL of PYY was added (see Table VII) to the medium. BSA (CAS Number: 9048-46-8) was obtained from Sigma-Aldrich, St. Louis, MO, USA, n-dodecyl-4-O-α-D-glucopyranosyl-β-D-glucopyranoside and n-tetradecyl-4-O-α-D-glucopyranosyl-β-D-glucopyranoside were obtained from Anatrace Inc., Maumee, OH, USA, and PYY was obtained from Bachem California Inc., Torrance, CA, USA.
(§6) Antibacterial activity of the alkylglycosides were conducted in four sterile, capped bacteriological containers of suitable size into which a sufficient volume of alkylglycoside solution had been transferred. Each container was inoculated with one of the prepared and standardized inoculums and mixed. The volume of the suspension inoculum was between about 0.5% and about 1.0% of the volume of the alkylglycoside solution. […]. To determine the level of inhibition of growth, or reduction of growth based on a logarithmic scale, the initial concentration of viable microorganisms in each test preparation was estimated based on the concentration of microorganisms in each of the standardized inoculum as determined by the plate-count method. The inoculated containers were then incubated at about 22.5 °C±2.5. The growth or non-growth of the microorganisms in each culture/container were again determined at day 14 and day 28. The number of cfu present in each calculation was determined by the plate-count procedure standard in the art for the applicable intervals. The change in the orders of magnitude of bacterium and/or fungi was then determined by subtracting the first calculated log 10 values of the concentrations of cfu per mL present at the start or beginning (e.g., day 0), from the log 10 values of the concentration of cfu per mL for each microorganism at the applicable test intervals (e.g., day 14 and day 28; see Tables V, VI and VII).

[2] = tested on: Staphylococcus aureus (ATCC No. 6538); assay: Antibacterial activity, log reduction of cfu; assay type: cell-based
Source text: as §1, §2, §3, §4, §5, §6

[3] = tested on: Aspergillus niger (ATCC No. 16404); assay: Antimicrobial activity, log reduction of cfu; assay type: cell-based; details: for log reduction at […]: Aspergillus niger
Source text: as §1, §2, §3, §4, §5, §6

[4] = tested on: Candida albicans (ATCC No. 10231); assay: Antimicrobial activity, log reduction of cfu; assay type: cell-based
Source text: as §1, §2, §3, §4, §5, §6

[5] = Oral phenylephrine tablet bioavailability in a canine model; assay type: in vivo, dog; details: compressed tablets
Procedure: In a canine model, subjects were dosed orally with various phenylephrine (PE) tablet formulations, and blood samples were taken to determine the rate of parent phenyl ethyl phenylephrine absorption. Blood levels of parent phenylephrine were measured. Three subject groups were created with each alkylsaccharide test group containing five subjects in each test group. All subject groups received 10 mg of phenylephrine as a single tablet. Each subject was in the fasting state for overnight and two hours post dose. Blood samples were taken at pre-dose, 5, 10, 15, 30, 45 min., 1, 2, and 3 hours.
Comparator was the standard 30 mg (total weight including excipients) phenylephrine tablet was no absorption enhancer. Group number 2 tablets contain the alkylsaccharide designated A3, which is n-dodecyl-beta-D-maltoside in the amounts of 2.5 mg, 5 mg, and 7.5 mg, respectively. Group number three tablets contain the alkylsaccharide designated B3, which is sucrose monododecanoate, in the amounts of 5 mg, 10 mg, and 20 mg, respectively.

[6] = rat, in vivo
Procedure: Each set of drug solutions is administered to six groups of eight rats each by 20 uL instillation to a single nare of each animal. […] After the last blood sample is collected each animal is euthanized with CO2. […] Plasma samples are stored at −70 °C until analyzed. […] The concentration vs time data are plotted to determine the Cmax at each alkylsaccharide concentration and the ratio of Cmax with and without alkylsaccharide present is calculated and recorded as shown in Table XIX.

With `CCCCCCCCCCCCO[C@@H]1O[C@H](CO)[C@@H](O[C@H]2O[C@H](CO)[C@@H](O)[C@H](O)[C@H]2O)[C@H](O)[C@H]1O` [Dodecyl Maltoside, n-Dodecyl-4-O-α-D-glucopyranosyl-β-D-glucopyranoside] as the compound, how does the “effect on ocular insulin absorption” value (blood glucose; 0.5% and […] enhancer with insulin eye drops) read?
The value was “equally effective”.

And the “effect on blood glucose / ocular insulin absorption” value (blood glucose; 0.5% enhancer with 0.2% insulin eye drops)?
Its value is “maintained in the normoglycemic (80-120 mg/dl) or near-normoglycemic (120-160 mg/dl) range”.

What about the “effect on ocular insulin absorption (alkyl chain length comparison)” value (blood glucose; alkylmaltosides with insulin eye drops) of the same compound?
The value was “more effective”.

What about the Blood Glucose (blood glucose; 0 min) of the same compound?
The Blood Glucose was 379 ± 4 mg/dL.

And the Blood Glucose (blood glucose; 30 min)?
The Blood Glucose was 297 ± 18 mg/dL.

What about the Blood Glucose (blood glucose; 60 min) of the same compound?
Its Blood Glucose is 188 ± 25 mg/dL.

And the Blood Glucose (blood glucose; 90 min)?
The Blood Glucose was 141 ± 13 mg/dL.

What about the Blood Glucose (blood glucose; 120 min) of the same compound?
The Blood Glucose was 123 ± 5 mg/dL.

And the Blood Glucose (blood glucose; -10 min (pre-dose))?
The Blood Glucose was 366 ± 12 mg/dL.

What about the Blood Glucose (blood glucose; -20 min (pre-dose)) of the same compound?
Its Blood Glucose is 375 ± 9 mg/dL.

And the log reduction at […] ([1]; ATCC8739, 336 h)?
Its log reduction at […] is no less than 5.

And the log reduction at […] ([1]; ATCC8739, 672 h)?
Its log reduction at […] is no less than 5.

And the log reduction at […] ([1]; ATCC8739, 672 h, read-out: log reduction of microorganisms)?
The log reduction at […] was 0.1.

And the log reduction at […] ([2]; ATCC6538, 336 h)?
The log reduction at […] was no less than 4.9.

And the log reduction at […] ([2]; ATCC6538, 336 h, read-out: log reduction of microorganisms)?
The log reduction at […] was no less than 5.2.

What about the log reduction at […] ([2]; ATCC6538, 672 h) of the same compound?
The log reduction at […] was no less than 4.9.

And the log reduction at […] ([2]; ATCC6538, 672 h, read-out: log reduction of microorganisms)?
Its log reduction at […] is no less than 5.2.

And the log reduction at […] ([3]; ATCC16404, 336 h)?
Its log reduction at […] is 4.7.

What about the log reduction at […] ([3]; ATCC16404, 336 h, read-out: log reduction of microorganisms) of the same compound?
The log reduction at […] was 0.7.

What about the log reduction at […] ([3]; ATCC16404, 672 h) of the same compound?
Its log reduction at […] is 4.7.

What about the “growth from initial count” value ([3]; […], day 28) of the same compound?
Its value is “No growth”.

What about the log reduction at […] ([4]; ATCC10231, 336 h) of the same compound?
Its log reduction at […] is no less than 4.5.

What about the log reduction at […] ([4]; ATCC10231, 336 h, read-out: log reduction of microorganisms) of the same compound?
Its log reduction at […] is 3.

And the log reduction at […] ([4]; ATCC10231, 672 h)?
The log reduction at […] was no less than 4.5.

What about the log reduction at […] ([4]; ATCC10231, 672 h, read-out: log reduction of microorganisms) of the same compound?
The log reduction at […] was no less than 5.3.

What about the “increase of oral bioavailability of phenylephrine” value [5] of the same compound?
The value was “up to 56%”.

And the “Ratio Cmax(alkylsacch)/Cmax(No alkylsacch)” value [6]?
Its value is no less than 1.5.
